From ChEMBL document CHEMBL1132033, “Stabilization of microtubules by Combretastatin D derivatives” (Bioorg Med Chem Lett, 1999)
pIC50: −log10 of the molar value.

How the values were obtained:
[1] = target: Tubulin alpha chain (Sus scrofa) (UniProt P02550); assay: Inhibitory activity against tubulin polymerization at 0.5 mM concentration; assay type: functional
1A9/ptx-22 = assay: Inhibitory activity against Taxol resistant PTX22 cell lines; assay type: functional, cell-based; conditions: Homo sapiens
1A9/ptx-10 = assay: Inhibitory activity against Taxol resistant PTX10 cell lines; assay type: functional, cell-based; conditions: Homo sapiens
1A9 = assay: Inhibitory activity against Taxol resistant 1A9 cell lines; assay type: functional, cell-based; conditions: Homo sapiens
[2] = target: Tubulin alpha chain (Sus scrofa) (UniProt P02550); assay: Inhibitory activity against tubulin polymerization at 2.0 mM concentration; assay type: functional
[3] = target: Tubulin alpha chain (Sus scrofa) (UniProt P02550); assay: Inhibitory activity against tubulin polymerization at 1.0 mM concentration; assay type: functional
[4] = target: Tubulin alpha chain (Sus scrofa) (UniProt P02550); assay: Inhibitory activity against tubulin polymerization at 0.25 mM concentration; assay type: functional

Sequence of Tubulin alpha chain (Sus scrofa) (P02550 whole entry, looked up): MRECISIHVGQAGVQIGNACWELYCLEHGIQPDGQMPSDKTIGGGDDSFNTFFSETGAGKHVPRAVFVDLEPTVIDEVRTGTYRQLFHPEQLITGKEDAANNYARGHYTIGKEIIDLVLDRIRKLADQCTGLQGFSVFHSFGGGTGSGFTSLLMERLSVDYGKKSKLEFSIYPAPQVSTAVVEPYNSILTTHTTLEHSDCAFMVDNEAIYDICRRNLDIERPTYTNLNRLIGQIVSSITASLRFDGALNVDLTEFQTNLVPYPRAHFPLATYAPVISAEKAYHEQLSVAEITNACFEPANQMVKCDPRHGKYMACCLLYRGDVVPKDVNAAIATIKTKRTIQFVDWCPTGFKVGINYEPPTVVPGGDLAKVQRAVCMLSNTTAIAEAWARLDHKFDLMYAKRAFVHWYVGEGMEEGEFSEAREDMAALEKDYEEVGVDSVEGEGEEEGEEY

| Structure (SMILES) | inhibition [1] | pIC50 (1A9/ptx-22) | pIC50 (1A9/ptx-10) | pIC50 (1A9) | inhibition [2] | inhibition [3] | inhibition [4] |
| --- | --- | --- | --- | --- | --- | --- | --- |
| COc1ccc2cc1Oc1ccc(cc1)/C=C\COC(=O)CC2 | 19% | < 5.60 | < 5.60 | < 5.60 | 35% | 27% | 16% |
| COc1c(Br)cc2cc1Oc1ccc(cc1)CC(O)COC(=O)CC2 (configuration not stated) | 21% | < 5.60 | < 5.60 | < 5.60 | 67% | 39% | 3% |
| COc1cc2c(c(OC)c1OC)-c1ccc(OC)c(=O)cc1[C@@H](NC(C)=O)CC2 [COLCHICINE] | 3% | < 5.60 | < 5.60 | < 5.60 | 0% | 4% | 4% |
| COc1ccc2cc1Oc1ccc(cc1)CC(O)COC(=O)CC2 (configuration not stated) | 47% | < 5.60 | < 5.60 | < 5.60 | 76% | 62% | 27% |
| COc1ccc2cc1Oc1ccc(cc1)CC(I)COC(=O)CC2 (configuration not stated) | 28% | < 5.60 | < 5.60 | < 5.60 | 54% | 35% | 5% |
| COc1ccc2cc1Oc1ccc(cc1)C1OC1COC(=O)CC2 (configuration not stated) | 20% | < 5.60 | < 5.60 | < 5.60 | 39% | 27% | 0% |
